From PubChem BioAssay AID248 (DTP/NCI, 2004)
Where “and” joins values, the source holds several entries; their conditions need not be identical. Equal entries are not always repeated. Inconclusive results and toxic doses are left out. No stated cut-off is given here; in the data, active means T/C of 150% or more; inactive means T/C below 125%.

System: L1210 leukemia ip in BDF1 mice, survival T/C
Experiment: NCI In Vivo Anticancer Drug Screen. Data for tumor model L1210 Leukemia (intraperitoneal) in B6D2F1 (BDF1) mice
Details: endpoint: mean survival time, higher = longer survival
In short: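 Tumor cells were implanted, animals were treated, and survival was followed. The result divides the treated measurement by the vehicle-control measurement.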

[1] = dose: 100.0 mg/kg/injection, schedule: Q01DX Z (ip), vehicle: methylcellulose (MC)

Measured: T/C

CCOC(=O)CNCc1cccc(Br)c1
inactive: dose: 50.0 mg/kg/injection, schedule: Q01DX005 (ip), vehicle: saline 98 % of control | dose: 100.0 mg/kg/injection, schedule: Q01DX005 (ip), vehicle: saline 112 % of control | dose: 200.0 mg/kg/injection, schedule: Q01DX005 (ip), vehicle: saline 102 % of control | dose: 400.0 mg/kg/injection, schedule: Q01DX005 (ip), vehicle: saline 100 % of control

O[Si](O)(c1ccccc1)c1ccccc1
inactive: dose: 100.0 mg/kg/injection, schedule: Q04DX002 (ip), vehicle: saline with Tween-80 92 % of control | dose: 200.0 mg/kg/injection, schedule: Q04DX002 (ip), vehicle: saline with Tween-80 87 % of control | dose: 400.0 mg/kg/injection, schedule: Q04DX002 (ip), vehicle: saline with Tween-80 92 % of control

CN(C)CCOC(c1ccccc1)c1ccccc1
inactive: dose: 3.12 mg/kg/injection, schedule: Q01DX009 (ip), vehicle: saline 92 % of control and 96 % of control | dose: 6.25 mg/kg/injection, schedule: Q01DX009 (ip), vehicle: saline 102 % of control and 107 % of control | dose: 12.5 mg/kg/injection, schedule: Q01DX009 (ip), vehicle: saline 100 % of control and 114 % of control | dose: 25.0 mg/kg/injection, schedule: Q01DX009 (ip), vehicle: saline 100 % of control and 102 % of control | dose: 25.0 mg/kg/injection, schedule: Q04DX003 (ip), vehicle: saline 97 % of control | dose: 50.0 mg/kg/injection, schedule: Q01DX009 (ip), vehicle: saline 117 % of control and 91 % of control | dose: 50.0 mg/kg/injection, schedule: Q04DX003 (ip), vehicle: saline 111 % of control

O=C(Cc1ccccc1)NCCc1ccc(-c2ccccc2)cc1
inactive: dose: 100.0 mg/kg/injection, schedule: Q01DX001 (ip), vehicle: carboxymethylcellulose (CMC) 94 % of control | dose: 200.0 mg/kg/injection, schedule: Q01DX001 (ip), vehicle: carboxymethylcellulose (CMC) 96 % of control | dose: 400.0 mg/kg/injection, schedule: Q01DX001 (ip), vehicle: carboxymethylcellulose (CMC) 86 % of control

COc1nc(=S)nc(OC)[nH]1
inactive: [1] 95 % of control

Nc1nc(Nc2cccc(Cl)c2)cc(=O)[nH]1
inactive: [1] 90 % of control | dose: 200.0 mg/kg/injection, schedule: Q01DX Z (ip), vehicle: methylcellulose (MC) 99 % of control

COc1ccccc1N=Nc1c(O)n(-c2ccccc2)c(=S)n(-c2ccccc2)c1=O
inactive: dose: 100.0 mg/kg/injection, schedule: Q01DX001 (ip), vehicle: saline with Tween-80 106 % of control | dose: 200.0 mg/kg/injection, schedule: Q01DX001 (ip), vehicle: saline with Tween-80 95 % of control | dose: 400.0 mg/kg/injection, schedule: Q01DX001 (ip), vehicle: saline with Tween-80 94 % of control

CC(=O)COC(=O)c1ccc(N(C)CC(C)=O)cc1
inactive: dose: 100.0 mg/kg/injection, schedule: Q04DX003 (ip), vehicle: Klucel (hydroxypropylcellulose) (HPC) 95 % of control | dose: 200.0 mg/kg/injection, schedule: Q04DX003 (ip), vehicle: Klucel (hydroxypropylcellulose) (HPC) 86 % of control | dose: 400.0 mg/kg/injection, schedule: Q04DX003 (ip), vehicle: Klucel (hydroxypropylcellulose) (HPC) 93 % of control

Cc1ccc(S(=O)(=O)OC(c2ccccc2)c2ccccc2)cc1
inactive: dose: 25.0 mg/kg/injection, schedule: Q04DX002 (ip), vehicle: Klucel (hydroxypropylcellulose) (HPC) 97 % of control | dose: 50.0 mg/kg/injection, schedule: Q04DX002 (ip), vehicle: Klucel (hydroxypropylcellulose) (HPC) 97 % of control | dose: 100.0 mg/kg/injection, schedule: Q04DX002 (ip), vehicle: Klucel (hydroxypropylcellulose) (HPC) 93 % of control
